Measured values reported in ChEMBL document CHEMBL1154822, “Synthesis and antiproliferative activity of 7-azaindirubin-3'-oxime, a 7-aza isostere of the natural indirubin pharmacophore” (J Nat Prod, 2009).

What was measured:
Format in all cases: functional
[1] = test system: ACHN; assay: Cytotoxicity against human ACHN cells assessed as cell growth at 1 uM after 1 to 11 days by MTT assay; conditions: read-out: Activity
[2] = test system: PC-3; assay: Cytotoxicity against human PC3 cells assessed as cell growth at 1 uM after 1 to 11 days by MTT assay; conditions: read-out: Activity
[3] = test system: M14; assay: Cytotoxicity against human M14 cells assessed as cell growth at 10 uM after 1 to 11 days by MTT assay; conditions: read-out: Activity
[4] = test system: SK-MEL-28; assay: Cytotoxicity against human SK-MEL-28 cells assessed as cell growth at 10 uM after 1 to 11 days by MTT assay; conditions: read-out: Activity
[5] = test system: IGROV-1; assay: Cytotoxicity against human IGROV1 cells assessed as cell growth at 10 uM after 1 to 11 days by MTT assay; conditions: read-out: Activity
[6] = test system: OVCAR-4; assay: Cytotoxicity against human OVCAR4 cells assessed as cell growth at 10 uM after 1 to 11 days by MTT assay; conditions: read-out: Activity
[7] = test system: OVCAR-8; assay: Cytotoxicity against human OVCAR8 cells assessed as cell growth at 10 uM after 1 to 11 days by MTT assay; conditions: read-out: Activity
[8] = Cytotoxicity against human Hs 578T cells assessed as cell growth at 1 uM after 1 to 11 days by MTT assay; conditions: read-out: Activity
[9] = test system: BT-549; assay: Cytotoxicity against human BT549 cells assessed as cell growth at 1 uM after 1 to 11 days by MTT assay; conditions: read-out: Activity
[10] = test system: CCRF-CEM; assay: Cytotoxicity against human CCRF-CEM cells assessed as cell growth at 10 uM after 1 to 11 days by MTT assay; conditions: read-out: Activity
[11] = test system: SR; assay: Cytotoxicity against human SR cells assessed as cell growth at 10 uM after 1 to 11 days by MTT assay; conditions: read-out: Activity
[12] = test system: NCI-H460; assay: Cytotoxicity against human NCI-H460 cells assessed as cell growth at 10 uM after 1 to 11 days by MTT assay; conditions: read-out: Activity
[13] = test system: HT-29; assay: Cytotoxicity against human HT-29 cells assessed as cell growth at 10 uM after 1 to 11 days by MTT assay; conditions: read-out: Activity
[14] = test system: KM12; assay: Cytotoxicity against human KM12 cells assessed as cell growth at 10 uM after 1 to 11 days by MTT assay; conditions: read-out: Activity
[15] = test system: LOX IMVI; assay: Cytotoxicity against human LOXIMVI cells assessed as cell growth at 10 uM after 1 to 11 days by MTT assay; conditions: read-out: Activity
[16] = test system: M14; assay: Cytotoxicity against human M14 cells assessed as cell growth at 100 uM after 1 to 11 days by MTT assay; conditions: read-out: Activity
[17] = test system: NCI-H226; assay: Cytotoxicity against human NCI-H226 cells assessed as cell growth at 100 uM after 1 to 11 days by MTT assay; conditions: read-out: Activity
[18] = test system: SW-620; assay: Cytotoxicity against human SW620 cells assessed as cell growth at 100 uM after 1 to 11 days by MTT assay; conditions: read-out: Activity
[19] = test system: SF-268; assay: Cytotoxicity against human SF268 cells assessed as cell growth at 100 uM after 1 to 11 days by MTT assay; conditions: read-out: Activity
[20] = test system: SF-539; assay: Cytotoxicity against human SF539 cells assessed as cell growth at 100 uM after 1 to 11 days by MTT assay; conditions: read-out: Activity
[21] = test system: OVCAR-5; assay: Cytotoxicity against human OVCAR5 cells assessed as cell growth at 100 uM after 1 to 11 days by MTT assay; conditions: read-out: Activity
[22] = test system: OVCAR-8; assay: Cytotoxicity against human OVCAR8 cells assessed as cell growth at 100 uM after 1 to 11 days by MTT assay; conditions: read-out: Activity
[23] = test system: UO-31; assay: Cytotoxicity against human UO31 cells assessed as cell growth at 100 uM after 1 to 11 days by MTT assay; conditions: read-out: Activity
[24] = test system: BT-549; assay: Cytotoxicity against human BT549 cells assessed as cell growth at 100 uM after 1 to 11 days by MTT assay; conditions: read-out: Activity
[25] = test system: HOP-92; assay: Cytotoxicity against human HOP92 cells assessed as cell growth at 1 mM after 1 to 11 days by MTT assay; conditions: read-out: Activity
[26] = test system: NCI-H226; assay: Cytotoxicity against human NCI-H226 cells assessed as cell growth at 1 mM after 1 to 11 days by MTT assay; conditions: read-out: Activity
[27] = test system: HCT-15; assay: Cytotoxicity against human HCT15 cells assessed as cell growth at 1 mM after 1 to 11 days by MTT assay; conditions: read-out: Activity
[28] = test system: MOLT-4; assay: Cytotoxicity against human MOLT4 cells after 1 to 11 days by MTT assay
[29] = test system: SR; assay: Cytotoxicity against human SR cells after 1 to 11 days by MTT assay
[30] = test system: COLO 205; assay: Cytotoxicity against human COLO205 cells after 1 to 11 days by MTT assay
[31] = test system: HCT-15; assay: Cytotoxicity against human HCT15 cells after 1 to 11 days by MTT assay
[32] = test system: SF-539; assay: Cytotoxicity against human SF539 cells after 1 to 11 days by MTT assay
[33] = test system: UACC-257; assay: Cytotoxicity against human UACC257 cells assessed as cell growth at 1 mM after 1 to 11 days by MTT assay; conditions: read-out: Activity
[34] = test system: SK-OV-3; assay: Cytotoxicity against human SKOV3 cells assessed as cell growth at 1 mM after 1 to 11 days by MTT assay; conditions: read-out: Activity
[35] = test system: UACC-257; assay: Cytotoxicity against human UACC257 cells after 1 to 11 days by MTT assay
[36] = test system: IGROV-1; assay: Cytotoxicity against human IGROV1 cells after 1 to 11 days by MTT assay
[37] = test system: NCI/ADR-RES; assay: Cytotoxicity against human NCI/ADR-RES cells after 1 to 11 days by MTT assay
[38] = test system: SF-268; assay: Cytotoxicity against human SF268 cells assessed as cell growth at 0.1 uM after 1 to 11 days by MTT assay; conditions: read-out: Activity
[39] = test system: NCI-H23; assay: Cytotoxicity against human NCI-H23 cells assessed as cell growth at 0.1 uM after 1 to 11 days by MTT assay; conditions: read-out: Activity
[40] = test system: NCI-H322M; assay: Cytotoxicity against human NCI-H322M cells assessed as cell growth at 0.1 uM after 1 to 11 days by MTT assay; conditions: read-out: Activity
[41] = test system: HT-29; assay: Cytotoxicity against human HT-29 cells assessed as cell growth at 0.1 uM after 1 to 11 days by MTT assay; conditions: read-out: Activity
[42] = test system: OVCAR-3; assay: Cytotoxicity against human OVCAR-3 cells assessed as cell growth at 0.1 uM after 1 to 11 days by MTT assay; conditions: read-out: Activity
[43] = test system: NCI-H460; assay: Cytotoxicity against human NCI-H460 cells assessed as cell growth at 1 uM after 1 to 11 days by MTT assay; conditions: read-out: Activity
[44] = test system: SK-MEL-28; assay: Cytotoxicity against human SK-MEL-28 cells assessed as cell growth at 1 uM after 1 to 11 days by MTT assay; conditions: read-out: Activity
[45] = read-out: LC50 (the source's name)

Q: Which growth at 1 µM [1] does the source give for O=C1Nc2ncccc2/C1=C1/Nc2ccccc2/C1=N\O here?
A: Its growth at 1 µM is 95%.

Q: What about the growth at 1 µM [2] of the same compound?
A: The growth at 1 µM was 83%.

Q: And the growth at 10 µM [3]?
A: Its growth at 10 µM is 86%.

Q: What about the growth at 10 µM [4] of the same compound?
A: Its growth at 10 µM is 87%.

Q: What about the growth at 10 µM [5] of the same compound?
A: Its growth at 10 µM is 60%.

Q: And the growth at 10 µM [6]?
A: Its growth at 10 µM is 96%.

Q: And the growth at 10 µM [7]?
A: Its growth at 10 µM is 84%.

Q: What about the growth at 1 µM [8] of the same compound?
A: The growth at 1 µM was 98%.

Q: And the growth at 1 µM [9]?
A: The growth at 1 µM was 70%.

Q: What about the growth at 10 µM [10] of the same compound?
A: The growth at 10 µM was 82%.

Q: And the growth at 10 µM [11]?
A: The growth at 10 µM was 147%.

Q: What about the growth at 10 µM [12] of the same compound?
A: Its growth at 10 µM is 97%.

Q: What about the growth at 10 µM [13] of the same compound?
A: The growth at 10 µM was 99%.

Q: And the growth at 10 µM [14]?
A: Its growth at 10 µM is 45%.

Q: What about the growth at 10 µM [15] of the same compound?
A: The growth at 10 µM was 86%.

Q: What about the growth at 100 µM [16] of the same compound?
A: Its growth at 100 µM is 46%.

Q: What about the growth at 100 µM [17] of the same compound?
A: Its growth at 100 µM is -5%.

Q: And the growth at 100 µM [18]?
A: The growth at 100 µM was 43%.

Q: And the growth at 100 µM [19]?
A: The growth at 100 µM was 54%.

Q: And the growth at 100 µM [20]?
A: The growth at 100 µM was 60%.

Q: What about the growth at 100 µM [21] of the same compound?
A: The growth at 100 µM was 88%.

Q: What about the growth at 100 µM [22] of the same compound?
A: Its growth at 100 µM is 50%.

Q: What about the growth at 100 µM [23] of the same compound?
A: The growth at 100 µM was 3%.

Q: What about the growth at 100 µM [24] of the same compound?
A: The growth at 100 µM was 43%.

Q: And the growth at 1000 µM [25]?
A: Its growth at 1000 µM is 44%.

Q: What about the growth at 1000 µM [26] of the same compound?
A: Its growth at 1000 µM is 13%.

Q: And the growth at 1000 µM [27]?
A: Its growth at 1000 µM is 24%.

Q: What about the GI50 [28] of the same compound?
A: Its GI50 is 2.99 µM.

Q: And the TGI [28]?
A: The TGI was over 100 µM.

Q: What about the CC50 [28, 45] of the same compound?
A: The CC50 was over 100 µM.

Q: What about the GI50 [29] of the same compound?
A: The GI50 was 6.65 µM.

Q: What about the TGI [29] of the same compound?
A: Its TGI is over 100 µM.

Q: And the CC50 [29, 45]?
A: The CC50 was over 100 µM.

Q: What about the GI50 [30] of the same compound?
A: The GI50 was 1.73 µM.

Q: What about the TGI [30] of the same compound?
A: Its TGI is over 100 µM.

Q: What about the CC50 [30, 45] of the same compound?
A: The CC50 was over 100 µM.

Q: What about the GI50 [31] of the same compound?
A: The GI50 was 3.67 µM.

Q: And the TGI [31]?
A: Its TGI is over 100 µM.

Q: What about the CC50 [31, 45] of the same compound?
A: The CC50 was over 100 µM.

Q: And the GI50 [32]?
A: The GI50 was over 100 µM.

Q: And the TGI [32]?
A: The TGI was over 100 µM.

Q: What about the CC50 [32, 45] of the same compound?
A: The CC50 was over 100 µM.

Q: And the growth at 1000 µM [33]?
A: Its growth at 1000 µM is 60%.

Q: And the growth at 1000 µM [34]?
A: The growth at 1000 µM was 8%.

Q: What about the GI50 [35] of the same compound?
A: Its GI50 is over 100 µM.

Q: And the TGI [35]?
A: The TGI was over 100 µM.

Q: What about the CC50 [35, 45] of the same compound?
A: The CC50 was over 100 µM.

Q: What about the GI50 [36] of the same compound?
A: The GI50 was 1.64 µM.

Q: And the TGI [36]?
A: The TGI was over 100 µM.

Q: What about the CC50 [36, 45] of the same compound?
A: The CC50 was over 100 µM.

Q: And the GI50 [37]?
A: Its GI50 is over 100 µM.

Q: What about the TGI [37] of the same compound?
A: The TGI was over 100 µM.

Q: And the CC50 [37, 45]?
A: The CC50 was over 100 µM.

Q: What about the growth at 0.1 µM [38] of the same compound?
A: Its growth at 0.1 µM is 100%.

Q: What about the growth at 0.1 µM [39] of the same compound?
A: The growth at 0.1 µM was 96%.

Q: What about the growth at 0.1 µM [40] of the same compound?
A: The growth at 0.1 µM was 95%.

Q: What about the growth at 0.1 µM [41] of the same compound?
A: The growth at 0.1 µM was 99%.

Q: And the growth at 0.1 µM [42]?
A: The growth at 0.1 µM was 99%.

Q: And the growth at 1 µM [43]?
A: Its growth at 1 µM is 105%.

Q: What about the growth at 1 µM [44] of the same compound?
A: Its growth at 1 µM is 87%.
